Here are results for 5 molecules from paper PMC11876601 (Molecular Systems Biology, 2025).

Like-named read-outs stand apart in the source and are kept apart here. Some results are limits rather than exact numbers.

The test system of one assay is JAK1. Also on record: method as in Reinecke et al. (2023). The following applies: JAK1, 5 cell line mix lysate, Kinobeads ε, ref Reinecke et al. (2023), cited from earlier work.
For another assay, the system named is PTK6. Also on record: method as in Reinecke et al. (2023). To be noted: PTK6, 5 cell line mix lysate, Kinobeads ε, ref Reinecke et al. (2023), cited from earlier work.
The next assay deals with MAPK9. Details: method as in Reinecke et al. (2023). The following applies: MAPK9, 5 cell line mix lysate, Kinobeads ε, ref Reinecke et al. (2023), cited from earlier work.
Assay [1] deals with HuP-T4. Nature of the assay: cells. Also on record: ATPlite luminescence viability of PDAC cell lines, 11-dose single-agent curves, 4-parameter fit. The following applies: Homo sapiens, HuP-T4, 72 h, read-out: EC50 [nM]. The procedure, abridged:
(§1)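 cells (1000 to 5000 per well) seeded 24 h before drug addition in a combination screen at 0.2% final DMSO. Controls were drug-free wells (negative) and 5 µM staurosporine (positive).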

Assay [2] has as its system protein expression in AsPC-1 cells. Nature of the assay: Time-dependent protein expression analysis (1 µM GEM or 1 µM ATRi, 15 min-24 h). In kind it is cell-based, human. To be noted: GEM. How it is done:
Cell culture medium was replaced 24 h after seeding. […] For time point 0, AsPC-1 cells were treated with a vehicle and lysed immediately. The final DMSO concentration in all experiments was 0.2%.
LC-MS/MS measurement of non-enriched, TMT-labeled peptides from temporal drug perturbation was carried out on an Orbitrap Fusion Lumos Tribrid instrument (Thermo Scientific) coupled to a micro-flow LC system built by combining a modified Vanquish pump and the autosampler of the Dionex UltiMate 3000 nano HPLC System (Thermo Scientific). Dried peptides were reconstituted in 0.1% formic acid and loaded directly onto an Acclaim PepMap 100 C18 column (2 μm particle size, 1 mm × 150 mm, Thermo Scientific) heated at 55 °C. […] Flow rates of sheath, aux, and sweep gas were kept at 32, 5, and 0, respectively. […] The cycle time between MS1 scans was 1.2 s, with a dynamic exclusion duration of 50 s.
Peptide and protein identification and quantification of time-series raw data was performed with MaxQuant (v2.1.3.0) using the same sequence information as above, with N-terminal acetylation and oxidized methionine as variable modifications and cysteine carbamidomethylation as fixed modification. All other search parameters were set as default. The resulting proteingroups.txt file was filtered to remove potential contaminants and reversed hits. Corrected TMT reporter channel intensities were median-centered, and ratios were calculated between treatments and their respective time-point controls (Appendix Table S6). Proteins were considered conversely regulated if absolute log2 fold change > 2 by at least one drug and oppositely affected by both drugs (up/down) at 24 h.

A further assay has as its system PSN-1. Nature of the assay: cells. Also on record: Viability of PDAC cell lines, ATPlite luminescence, 11-dose single-agent curve fit. To be noted: Homo sapiens, PSN1, 72 h, read-out: EC50 [nM]. Put shortly: (§2)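 cells (1000 to 5000 per well) seeded 24 h before drug addition in a screen at 0.2% final DMSO. Controls were drug-free wells (negative) and 5 µM staurosporine (positive).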

The test system of a further assay is HPDE. Nature of the assay: cells. Also on record: Viability of PDAC cell lines, ATPlite luminescence, 11-dose single-agent curve fit. To be noted: HPDE, 72 h, read-out: EC50 [nM]. Put shortly: as §2
The next assay deals with Capan-1. Nature of the assay: cells. Also on record: Viability of PDAC cell lines, ATPlite luminescence, 11-dose single-agent curve fit. The following applies: Homo sapiens, CAPAN-1, 72 h, read-out: EC50 [nM]. Put shortly:
as §2

Assay [3] deals with HuP-T4. Nature of the assay: cells. Also on record: Viability of PDAC cell lines, ATPlite luminescence, 11-dose single-agent curve fit. To be noted: Homo sapiens, HuP-T4, 72 h, read-out: EC50 [nM]. The procedure, abridged:
as §2

In another assay the test system is Colo-357. In words: cells. Also on record: Viability of PDAC cell lines, ATPlite luminescence, 11-dose single-agent curve fit. To be noted: Homo sapiens, COLO357, 72 h, read-out: EC50 [nM]. The procedure, abridged: as §2
The test system of assay [4] is PANC-1. Nature of the assay: cells. Also on record: Viability of PDAC cell lines, ATPlite luminescence, 11-dose single-agent curve fit. To be noted: Homo sapiens, PANC-1, 72 h, read-out: EC50 [nM]. Put shortly: as §2
In the next assay the test system is FAMPAC. Nature of the assay: cells. Details: ATPlite luminescence viability of PDAC cell lines, 11-dose single-agent curves, 4-parameter fit. The following applies: 72 h, read-out: EC50 [nM]. Put shortly:
as §1

The test system of another assay is Dan-G. Nature of the assay: cells. Details: ATPlite luminescence viability of PDAC cell lines, 11-dose single-agent curves, 4-parameter fit. The following applies: 72 h, read-out: EC50 [nM]. The procedure, abridged: as §1
For another assay, the system named is Suit2-07. In words: cells. Also on record: ATPlite luminescence viability of PDAC cell lines, 11-dose single-agent curves, 4-parameter fit. The following applies: 72 h, read-out: EC50 [nM]. The procedure, abridged:
as §1

The test system of a further assay is ACVR1B. Details: method as in Klaeger et al. (2017). To be noted: lysate 4 cell line mix (Colo205, K-562, MV-4-11, and SK-N-BE(2)), Kinobeads y, ref Klaeger et al. (2017); cited from earlier work.
The test system of another assay is MAPK8. Details: method as in Klaeger et al. (2017). The following applies: lysate 4 cell line mix (Colo205, K-562, MV-4-11, and SK-N-BE(2)), Kinobeads y, ref Klaeger et al. (2017); cited from earlier work.
In assay [5] the test system is PANC-1. Nature of the assay: cells. Details: ATPlite luminescence viability of PDAC cell lines, 11-dose single-agent curves, 4-parameter fit. The following applies: Homo sapiens, PANC-1, 72 h, read-out: EC50 [nM]. The procedure, abridged:
as §1

The subject of a further assay is PRKCA. Also on record: method as in Klaeger et al. (2017). The following applies: lysate 4 cell line mix (Colo205, K-562, MV-4-11, and SK-N-BE(2)), Kinobeads y, ref Klaeger et al. (2017); cited from earlier work.

Broadly, the EC50 is the midpoint of the concentration-response curve. With `COc1cc(N2CCC(N3CCN(C)CC3)CC2)ccc1Nc1ncc(Cl)c(Nc2ccccc2P(C)(C)=O)n1` [Brigatinib], the EC50 in the assay on JAK1 was 373 nM; with PTK6 it was 85.9 nM; in the assay on MAPK9, 2110 nM. For the same molecule, the values for the pKDapp on JAK1, at PTK6 and at MAPK9 were 6.86, 7.38 and 5.83, respectively. For the same molecule, the Kd at JAK1 (read-out: KDapp) is 139 nM; on PTK6 (read-out: KDapp), 41.5 nM; on MAPK9 (read-out: KDapp), 1480 nM.
For `C[C@@H]1COCCN1c1cc(-c2ccnn2C)c2ccnc(-c3ccn[nH]3)c2n1` [Elimusertib], the EC50 in the assay with HuP-T4 [1] turned out to be 359 nM.
As to `Nc1ccn([C@@H]2O[C@H](CO)[C@@H](O)C2(F)F)c(=O)n1` [GEM, Gemcitabine], the “Regulation_24h, CLN6 protein expression” value in assay [2] (protein CLN6) was “up”. For the same molecule, the “Regulation_24h, E2F6 protein expression” value in [2] (protein E2F6) is on record as “up”. In addition, the “Regulation_24h, HELZ2 protein expression” value in [2] (protein HELZ2) is “up”. Moreover, in assay [2] (protein PRKACA), the “Regulation_24h, PRKACA protein expression” value was “up”. The “Regulation_24h, RASSF10 protein expression” value in [2] (protein RASSF10) was “up”.
With `CCN1CCN(Cc2ccc(Nc3ncc(F)c(-c4cc(F)c5nc(C)n(C(C)C)c5c4)n3)nc2)CC1` [Abemaciclib], the half-maximal effective concentration (EC50) in the assay on PSN-1 is 151 nM; in the assay with HPDE, above 10000 nM; in the assay with Capan-1, 245 nM; with HuP-T4 [3], 7.93 nM; in the assay with Colo-357 it was 160 nM; in the assay with PANC-1 [4], 5540 nM. Further, the EC50 was above 10000 nM in the assay with FAMPAC, above 10000 nM in the assay on Dan-G and 250 nM in the assay with Suit2-07.
As for `C[C@]12O[C@H](C[C@]1(O)CO)n1c3ccccc3c3c4c(c5c6ccccc6n2c5c31)CNC4=O` [Lestaurtinib], the EC50 with ACVR1B is […]; in the assay on MAPK8, 1210 nM; in the assay on PANC-1 [5] it was above 10000 nM; in the assay with PRKCA it was 2470 nM.
